According to patent US11254958B1, “Metabolic engineering of E coli with thio-phosphate” (priority 2018, dated 2022):
Where “and” joins values, the source holds several entries; their conditions need not be identical. Equal values may be shown once. Entries after “also recorded” stand apart in the source; their conditions may differ.

Columns and labels:
E. coli K-12 = assay: RNA seq analysis of total RNA (FPKM); format: cell-based; parameters: hisA transcript elevation / FabB transcript elevation / TesA transcript elevation / FabD transcript elevation / FabH transcript elevation / ftsI transcript elevation / idtC transcript elevation / idtB transcript elevation: unit not given here
Experimental: (§1) E coli K12 bacteria were grown in high citrate minimal media with 5.4 g/L of thiophosphate or 2.4 g/L of Na2HPO4 for up to 12 hrs. The use of high citrate media was chosen to help lower the total amount of thiophosphate needed for growth when compared to regular M9 media (1). The media is prepared as follows: thiophosphate, 5.4 g/L; KCL 1.5 g/L; (NH4)2SO4, 2 g/L; sodium citrate 2H2O, 10 g/L. Adjust the pH to 7.5 and sterile filter the solution. Then add the following: MgSO4-7H2O, 0.2 g/L (sterilized separately as a conc. solution); glucose, 2 g/L sterilized separately by filtration). Glucose can also be sterilized by autoclaving separately. CaCl2 (11 mg/L) is also be added as needed.
For RNA seq analysis the RNA library was prepared using Illumina's TruSeq Stranded mRNA library prep (Illumina, 2010) without selection. The sequencing platform was HiSeq 2500 with a read format of PE 2×150. The coverage was at least 40 million per sample without rRNA depletion. A custom software build (Omegabioservice) of rRNA and tRNA sequences for reference mapping was used to more rapidly map rRNA sequences and avoid compression.
To get some idea of the impact of RNA stabilization via thiophosphate on specific mRNAs, RNA seq results were analyzed as FPKM (fragments per kilobase pair million) out of all reads including rRNA. This study was designed to give an absolute comparison rather than a relative comparison of transcript levels in total RNA. For control cells a total of 43 million reads of 150 bp in length were analyzed while 73.9 million reads were used in thiophosphate treated samples. The reads were mapped to a reference genome, E. coli K-12 substr. MG1655. One of the first things noticed was that many genes were not detected in both treated and control samples. Some of these absences were undoubtedly due to the low coverage resulting from the presence of numerous ribosomal RNA sequences in the preparations. However, even some transcripts readily detected by microarray analysis were not present. Other transcripts were not assessed due to their high copy number and the need for protracted computational time to quantitate. The second thing that was most obvious when comparing the two samples was there were many changes both positive and negative in the levels of transcripts for different genes. The results pointed to significant transcriptional changes induced secondarily via the general stabilization of RNA in vivo with thiophosphate.

[1] = test system: E. coli K12 and JM109 strains; assay: Morphological changes by bright field microscopy; format: cell-based
Experimental: as §1
To see if any morphological changes were occurring the bacteria were examined using bright field microscopy. […] To test whether this morphology was due to a nutritional deficiency K12 cells were grown in LB broth with 2.7 g of thiophosphate per liter.
In this media, filaments were detected by 8 hrs and by 2 hrs paired bacteria could be seen, as before with minimal media. In the 8 hr sample, however, the view was more mixed compared to that seen with minimal media, as both filamentous bacteria and some shorter and more normal appearing bacteria were observed.

[2] = semi-synthetic media containing thiophosphate with amino acids added

Structure (SMILES): OP(O)(O)=S [thio-phosphate]
- maximum decrease observed (E. coli K-12): 1550 ×
- median fold change, transcripts for 18 of the most abundant proteins (E. coli K-12): 1.55 × fold
- median fold decrease of decreased genes (E. coli K-12): 2.4
- median fold increase of increased genes (E. coli K-12): 2.75
- transcript level of the 2 out of 18 abundant-protein genes showing reduction (E. coli K-12): 80 % of normal
- genes expressed at low levels showing negative fold changes in mRNA (E. coli K-12; 12 genes expressed at low levels): 58%
- transcripts showing negative fold changes, average stability mRNA class (E. coli K-12; 33 mRNAs, half-lives between 5-7 mins, platform not given): 30%
- transcripts showing negative fold changes, unstable mRNA class (E. coli K-12; 33 mRNAs, half-lives of 3 mins or less, platform not given): 36%
- transcripts showing negative fold changes, stable mRNA class (E. coli K-12; 33 mRNAs, half-lives of 11 mins or more, platform not given): 36%
- fold increase in total FPKM counts (E. coli K-12; 4,311 E. coli genes, vs controls): 1.37 × fold
- FabB transcript elevation (E. coli K-12; RNA seq): 98
- FabD transcript elevation (E. coli K-12; RNA seq): 3.1
- FabH transcript elevation (E. coli K-12; RNA seq): 10.5
- Leu A transcript fold reduction (E. coli K-12; RNA seq): ~500 × fold
- Leu C transcript fold reduction (E. coli K-12; RNA seq): ~500 × fold
- Leu D transcript fold reduction (E. coli K-12; RNA seq): ~500 × fold
- TesA transcript elevation (E. coli K-12; RNA seq): 3.5
- accA transcript elevation (E. coli K-12; RNA seq): 19.8 ×
- accC transcript elevation (E. coli K-12; RNA seq): 6.2 ×
- accD transcript elevation (E. coli K-12; RNA seq): 3.39 × and 3.4 ×
- adk transcript fold elevation (E. coli K-12; RNA seq): 3.4 × fold
- aidB transcript fold elevation (E. coli K-12; RNA seq): 4-6 × fold
- bacA transcript elevation (E. coli K-12; RNA seq): 12 ×
- cysK transcript reduction (E. coli K-12; RNA seq): SOX
- cysM transcript reduction (E. coli K-12; RNA seq): 292 ×
- ddlB transcript increase (E. coli K-12; RNA seq): 30 ×
- dusB transcript fold elevation (E. coli K-12; RNA seq): 1.18
- dxs transcript fold increase (E. coli K-12; RNA seq): 101
- hisA transcript elevation (E. coli K-12; RNA seq): 6.2
- hisB transcript elevation (E. coli K-12; RNA seq): 162 ×
- hisC transcript elevation (E. coli K-12; RNA seq): 117 ×
- hisD transcript elevation (E. coli K-12; RNA seq): 10.9 ×
- hisG transcript elevation (E. coli K-12; RNA seq): 4.6 ×
- hisH transcript elevation (E. coli K-12; RNA seq): 28 ×
- hisI transcript elevation (E. coli K-12; RNA seq): 5 ×
- idi transcript fold increase (E. coli K-12; RNA seq): 3.57
- infB transcript fold elevation (E. coli K-12; RNA seq): 3 × fold
- ispA transcript elevation (E. coli K-12; RNA seq): 154 ×
- ispD transcript fold increase (E. coli K-12; RNA seq): 2
- ispE transcript fold increase (E. coli K-12; RNA seq): 1.8
- ispF transcript fold increase (E. coli K-12; RNA seq): 2.6
- ispH transcript fold increase (E. coli K-12; RNA seq): 2.2
- katE transcript fold elevation (E. coli K-12; RNA seq): 4-6 × fold
- murC transcript increase (E. coli K-12; RNA seq): 26 ×
- murD transcript increase (E. coli K-12; RNA seq): 144 ×
- murE transcript increase (E. coli K-12; RNA seq): 152 ×
- murF transcript increase (E. coli K-12; RNA seq): 250 ×
- murG transcript increase (E. coli K-12; RNA seq): 199 ×
- otsA transcript fold elevation (E. coli K-12; RNA seq): 4-6 × fold
- prsA transcript elevation (E. coli K-12; RNA seq): < 2 ×
- pyrG transcript fold elevation (E. coli K-12; RNA seq): 2.1 × fold
- pyrH transcript fold elevation (E. coli K-12; RNA seq): 3.5 × fold
- rpoS transcript fold elevation (E. coli K-12; RNA seq): 2.3 × fold
- rsfs transcript fold decrease (E. coli K-12; RNA seq): 19 × fold
- trpA transcript elevation (E. coli K-12; RNA seq): 1049 ×
- trpB transcript elevation (E. coli K-12; RNA seq): 1955 ×
- trpC transcript elevation (E. coli K-12; RNA seq): 606 ×
- trpD transcript elevation (E. coli K-12; RNA seq): 443 ×
- trpE transcript elevation (E. coli K-12; RNA seq): 541 ×
- tryD transcript elevation (E. coli K-12; RNA seq): 443 ×
- ybaY transcript fold elevation (E. coli K-12; RNA seq): 4-6 × fold
- ycih transcript fold elevation (E. coli K-12; RNA seq): 8 × fold
- yqgf transcript elevation (E. coli K-12; RNA seq): 4.64 ×
- ftsI transcript elevation (E. coli K-12; RNA seq (value in parentheses)): 109
- idtB transcript elevation (E. coli K-12; RNA seq (value in parentheses)): 164
- idtC transcript elevation (E. coli K-12; RNA seq (value in parentheses)): 3.6
- tRNA synthetases average increase (E. coli K-12; RNA seq, 13 tRNA synthetases detected): 11.7 × fold
- CspA transcript fold increase (E. coli K-12; RNA seq, vs control): 1.6 × fold
- nusA transcript fold increase (E. coli K-12; RNA seq, vs control): 3 × fold
- average fold decrease of decreased genes (E. coli K-12; SD 93): 20.4
- average fold increase of increased genes (E. coli K-12; SD 291): 44 × fold
- fold increase in mRNA or non-ribosomal RNA (E. coli K-12; after correcting for expected control reading of 82% for rRNA): 2.75 × fold
- fraction of reads that were rRNA (E. coli K-12; custom build of E. coli rRNA sequences): 68.7%
- median positive fold change, average mRNA class (E. coli K-12; platform not given): 2.6 ×
- median positive fold change, stable mRNA class (E. coli K-12; platform not given): 2.7 ×
- median positive fold change, unstable mRNA class (E. coli K-12; platform not given): 1.6 ×
- ribD, ribB, ribE and ribF gene transcripts (E. coli K-12; platform not given): did not appear to be significantly elevated
- Nlpl fold decrease (E. coli K-12; printed as protein, platform not given): 32 × fold
- cdsA mRNA increase (E. coli K-12; value in parentheses (RNA seq)): 21 ×
- morphology ([1]; K12, LB broth with 2.7 g of thiophosphate per liter, 12 hrs): Filamentous growth was not observed; also recorded: paired phenotype
- morphology ([1]; K12, LB broth with 2.7 g of thiophosphate per liter, 12 hrs, listed as TP): paired phenotype
- morphology ([1]; K12 and JM109, minimal thiophosphate media, 12 hrs): distinct filamentous morphology
- morphology ([1]; K12 and JM109, minimal thiophosphate media, 12 hrs, listed as TP): filamentous phenotype
- morphology ([1]; K12 and JM109, thiophosphate media, 2 hrs): appeared as pairs
- growth [1, 2]: good growth
- morphology [1, 2]: mixed with both long filamentous and shorter bacterial cells
